In patent US11167007B2, “FOXM1 modulators and uses thereof” (City of Hope, priority 2016, dated 2021):

What was measured:
AR [1] = molecular target: T1, AR (Homo sapiens, UniProt P10275); assay: FRET-based AR conformation change reporter (CARY) in HEK293 kidney cells; format: cell-based; design: Full length AR with cyan fluorescent protein (CFP) or yellow fluorescent protein (YFP) fused to either end (CARY); expressed in transfected cells
T1 sequence (P10275 1-920): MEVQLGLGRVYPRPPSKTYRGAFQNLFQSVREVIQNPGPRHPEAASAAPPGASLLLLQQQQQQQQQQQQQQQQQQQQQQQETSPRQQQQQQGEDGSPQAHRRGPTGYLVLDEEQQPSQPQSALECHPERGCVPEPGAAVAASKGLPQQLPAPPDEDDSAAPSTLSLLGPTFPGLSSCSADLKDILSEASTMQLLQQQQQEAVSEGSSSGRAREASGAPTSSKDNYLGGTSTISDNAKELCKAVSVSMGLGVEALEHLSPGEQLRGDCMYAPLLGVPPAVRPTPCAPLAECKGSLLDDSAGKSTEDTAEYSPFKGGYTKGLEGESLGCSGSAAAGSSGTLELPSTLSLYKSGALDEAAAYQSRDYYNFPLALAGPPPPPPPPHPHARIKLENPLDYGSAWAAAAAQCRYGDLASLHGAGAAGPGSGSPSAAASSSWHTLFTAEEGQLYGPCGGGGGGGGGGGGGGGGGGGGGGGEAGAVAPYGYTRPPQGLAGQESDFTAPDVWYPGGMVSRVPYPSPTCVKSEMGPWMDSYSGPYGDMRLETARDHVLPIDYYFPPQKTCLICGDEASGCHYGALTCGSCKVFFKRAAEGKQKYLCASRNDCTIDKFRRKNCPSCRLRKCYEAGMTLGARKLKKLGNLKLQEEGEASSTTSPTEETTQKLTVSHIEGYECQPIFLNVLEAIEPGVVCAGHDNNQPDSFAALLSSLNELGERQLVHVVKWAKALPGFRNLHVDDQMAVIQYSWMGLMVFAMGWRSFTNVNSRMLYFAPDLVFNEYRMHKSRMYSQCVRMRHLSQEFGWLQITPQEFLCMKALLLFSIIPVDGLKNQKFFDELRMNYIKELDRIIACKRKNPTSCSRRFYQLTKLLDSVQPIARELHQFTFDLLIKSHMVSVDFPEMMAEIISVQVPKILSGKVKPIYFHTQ
Experimental: (§1) Creation of stable C-AR-Y reporter cell lines. Cell lines listed above were either transfected with a plasmid or a virus containing the CFP-AR-YFP construct preceding an IRES and hygromycin resistance gene and clonal stable cell lines selected. Qualification criteria for the transfected cell lines were described by Jones et al, ACS Chem Biol, 3(7):412-8 (2008).
(§2) Screen for AR-modulators. Screening was performed essentially as described by Jones et al, ACS Chem Biol, 3(7):412-8 (2008). Briefly, C-AR-Y reporter GTI-7 were transferred to 96 well plates and treated with library compounds for 24 hours. […] The compounds to be tested were from the NCI/DTP Open Chemical Repository's Approved Oncology Drugs Set II, Diversity Set II and Mechanistic Set. […] After 24 hours, medium was aspirated and FRET was measured as previously described using a monochromator-based fluorescence plate reader (M1000, Tecan, Inc.). Jones et al, ACS Chem Biol, 3(7):412-8 (2008). […]
(§3) In order to identify potential cell-type selective AR modulators, the FRET-based assay of AR conformation change was utilized. […] This produces an accurate and quantifiable read-out of AR activity. […] Candidate hits were then further evaluated by dose response. […] In addition to FRET, AR transcriptional activity was also assessed in several cell lines by transfecting cells with a luciferase reporter driven by the human PSA promoter. […]

AR [2] = molecular target: T1, AR; assay: FRET-based AR conformation change reporter (CARY) in 3T3L1 adipose cells; format: cell-based, murine; design: Full length AR with cyan fluorescent protein (CFP) or yellow fluorescent protein (YFP) fused to either end (CARY); expressed in transfected cells; details: 3T3L1 adipose-derived cells
Experimental: as §1, §2, §3

Q: With `C=C(NC(=O)C(=C)NC(=O)c1csc(C2=N[C@@H]3c4csc(n4)[C@H]4NC(=O)c5csc(n5)[C@H]([C@](C)(O)[C@@H](C)O)NC(=O)[C@H]5CSC(=N5)/C(=C/C)NC(=O)[C@H]([C@@H](C)O)NC(=O)c5csc(n5)[C@]3(CC2)NC(=O)[C@H](C)NC(=O)C(=C)NC(=O)C(=C)NC(=O)[C@H](C(C)C)N[C@@H]2C=Cc3c([C@H](C)O)cc(nc3[C@H]2O)C(=O)O[C@@H]4C)n1)C(N)=O` [NSC285116, siomycin A] as the compound, how does the “AR inhibitor activity in words” value (AR [1]) read?
A: some activity

Q: What about the “AR inhibitor activity in words” value (AR [2]) of the same compound?
A: little to no activity
